PMC11447909, “Substrate Specificity of a Methyltransferase Involved in the Biosynthesis of the Lantibiotic Cacaoidin” (Biochemistry, 2024)
Bridge positions count the residues as written; N and C are the ends. Square brackets hold non-standard residues; d marks the D form. Ends that are not written are not given here. Abu = CC[C@H](N)C(=O)O; Dhb = C/C=C(\N)C(=O)O; Dha = C=C(N)C(=O)O

Columns and labels:
CaoSC = assay: In vitro methylation by His6-CaoSC with SAM (MALDI-TOF MS); format: biochemical, Streptomyces cacaoi CA-170360; settings: 50 μM peptide, 5 μM His6-CaoSC, 1 mM SAM, 20 mM HEPES pH 7.5, overnight, 37 °C
Procedure: For methylation, the 50 μL assay contained 50 μM peptide, 5 μM His6–CaoSC, and 1 mM SAM in 20 mM HEPES buffer (pH 7.5). After overnight reaction at 37 °C, the proteins were denatured by adding 5 μL of 2% TFA and centrifuged for 10 min at 4500 rpm in a microcentrifuge at room temperature. The supernatant was desalted using an EMD Millipore C18 ziptip, and the peptide was eluted and analyzed by MALDI-TOF MS as described above.

[1] = biological target: His6-CaoSC (methyltransferase of the cacaoidin biosynthetic gene cluster) (Streptomyces cacaoi CA-170360); assay: SEC; analytical SEC of purified His6-tagged CaoSC

Substance	methylation by CaoSC (number of methyl groups installed at N-terminus) (CaoSC)	stoichiometry N [1]
nisin (I[Dhb]AI[Dha]LC[Abu]PGCK[Abu]GALMGCNMK[Abu]A[Abu]CHCSIHV[Dha]K; thioether 8-11, 13-19, 23-26, 25-28, 3-7; not fully specified (residues 7, 11, 19, 26, 28); UniProt P13068 24-57, looked up) [class I lanthipeptide, 34 residues, three dehydroamino acids, five Lan/MeLan rings; purchased from Sigma-Aldrich]	monomethylated	–
His6-CaoSC (methyltransferase of the cacaoidin biosynthetic gene cluster) (enzyme)	–	2
A[Dha]APATIK [synthetic 8-residue peptide with a dehydroamino acid at position 2]	not accepted	–
